Reference: patent US20230085307A1, “PYRIDAZINONE COMPOUND AND HERBICIDE” (NISSAN CHEMICAL CORPORATION, priority 2019, published 2023)

Tests used:
Italian ryegrass [1] = experiment: Test Example 5: herbicidal effect by foliage application, plastic box (Table 20, symbol K); format: in vivo, Italian ryegrass (Lolium multiflorum); details: foliage application, 320 g/ha, evaluated three weeks after application
In short: (§1)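 Sow seeds spot-wise in sterilized diluvial soil; cover with ~1.5 cm soil. Grow 14 days in greenhouse, 25° C. to 30° C. Spray foliage with emulsion diluted to predetermined amount. Rate effect after 3 weeks.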

Chinese sprangletop = experiment: Test Example 3: herbicidal effect by foliage application, Wagner pot (Table 18, symbol D); format: in vivo, chinese sprangletop (Leptochloa chinensis); details: 320 g/ha
In short: (§2)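 Plants were sown in alluvial soil held under 0.1–0.5 cm standing water and grown 14 days in a greenhouse at 25–30 °C. An emulsifiable formulation, water-diluted to the set dose, was then sprayed onto the foliage, and effects were scored three weeks later using previously defined criteria.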

barnyard grass [2] = experiment: Test Example 5: herbicidal effect by foliage application, plastic box (Table 20, symbol H); format: in vivo, barnyard grass (Echinochloa crus-galli); details: foliage application, 320 g/ha, evaluated three weeks after application
In short: as §1

Japanese bulrush = experiment: Test Example 1: herbicidal activity, application before weed generation under submerged conditions (Table 16, symbol B); format: in vivo, Japanese bulrush (Schoenoplectus juncoides); details: 320 g/ha applied herbicide
In short: (§3)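 Alluvial soil was flooded to 4 cm depth, weed seeds were sown mixed and 2.5-leaf rice seedlings were transplanted. On sowing day, the compound's emulsion, diluted in water to a set dose, was applied to the water surface. Plants grew at 25–30 °C and were scored 0–5 after three weeks.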

wild oat [3] = experiment: Test Example 5: herbicidal effect by foliage application, plastic box (Table 20, symbol I); format: in vivo, wild oat (Avena fatua); details: foliage application, 320 g/ha, evaluated three weeks after application
In short: as §1

wild oat [4] = experiment: Test Example 4: herbicidal effect by soil treatment (Table 19, symbol I); format: in vivo, wild oat (Avena fatua); details: 320 g/ha
In short: (§4)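 Soil-surface application: an emulsion agent diluted with water to the predetermined dose is sprayed uniformly over seeds lying under roughly 1.5 cm of sterilized diluvial soil. Boxes stay in a greenhouse at 25° C. to 30° C. Three weeks later, each species is graded on previously defined criteria.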

velvetleaf [5] = experiment: Test Example 5: herbicidal effect by foliage application, plastic box (Table 20, symbol M); format: in vivo, velvetleaf (Abutilon theophrasti); details: foliage application, 320 g/ha, evaluated three weeks after application
In short: as §1

chickweed [6] = experiment: Test Example 5: herbicidal effect by foliage application, plastic box (Table 20, symbol P); format: in vivo, common chickweed (Stellaria media); details: foliage application, 320 g/ha, evaluated three weeks after application
In short: as §1

false cleavers [7] = experiment: Test Example 4: herbicidal effect by soil treatment (Table 19, symbol Q); format: in vivo, false cleavers (Galium spurium); details: 320 g/ha
In short: as §4

redroot pigweed [8] = experiment: Test Example 5: herbicidal effect by foliage application, plastic box (Table 20, symbol N); format: in vivo, redroot pigweed (Amaranthus retroflexus); details: foliage application, 320 g/ha, evaluated three weeks after application
In short: as §1

green foxtail [9] = experiment: Test Example 5: herbicidal effect by foliage application, plastic box (Table 20, symbol G); format: in vivo, green foxtail (Setaria viridis); details: foliage application, 320 g/ha, evaluated three weeks after application
In short: as §1

windgrass [10] = experiment: Test Example 5: herbicidal effect by foliage application, plastic box (Table 20, symbol L); format: in vivo, windgrass (Apera spica-venti); details: foliage application, 320 g/ha, evaluated three weeks after application
In short: as §1

lambsquarters [11] = experiment: Test Example 4: herbicidal effect by soil treatment (Table 19, symbol O); format: in vivo, lambsquarters (Chenopodium album); details: 320 g/ha
In short: as §4

barnyard grass [12] = experiment: Test Example 4: herbicidal effect by soil treatment (Table 19, symbol H); format: in vivo, barnyard grass (Echinochloa crus-galli); details: 320 g/ha
In short: as §4

false cleavers [13] = experiment: Test Example 5: herbicidal effect by foliage application, plastic box (Table 20, symbol Q); format: in vivo, false cleavers (Galium spurium); details: foliage application, 320 g/ha, evaluated three weeks after application
In short: as §1

persian speedwell [14] = experiment: Test Example 5: herbicidal effect by foliage application, plastic box (Table 20, symbol R); format: in vivo, Persian speedwell (Veronica persica); details: foliage application, 320 g/ha, evaluated three weeks after application
In short: as §1

green foxtail [15] = experiment: Test Example 4: herbicidal effect by soil treatment (Table 19, symbol G); format: in vivo, green foxtail (Setaria viridis); details: 320 g/ha
In short: as §4

windgrass [16] = experiment: Test Example 4: herbicidal effect by soil treatment (Table 19, symbol L); format: in vivo, windgrass (Apera spica-venti); details: 320 g/ha
In short: as §4

oval-leafed pondweed = experiment: Test Example 1: herbicidal activity, application before weed generation under submerged conditions (Table 16, symbol C); format: in vivo, oval-leafed pondweed (Monochoria vaginalis); details: 320 g/ha applied herbicide
In short: as §3

blackgrass [17] = experiment: Test Example 4: herbicidal effect by soil treatment (Table 19, symbol J); format: in vivo, blackgrass (Alopecurus myosuroides); details: 320 g/ha
In short: as §4

southern crabgrass [18] = experiment: Test Example 4: herbicidal effect by soil treatment (Table 19, symbol F); format: in vivo, southern crabgrass (Digitaria ciliaris); details: 320 g/ha
In short: as §4

blackgrass [19] = experiment: Test Example 5: herbicidal effect by foliage application, plastic box (Table 20, symbol J); format: in vivo, blackgrass (Alopecurus myosuroides); details: foliage application, 320 g/ha, evaluated three weeks after application
In short: as §1

redroot pigweed [20] = experiment: Test Example 4: herbicidal effect by soil treatment (Table 19, symbol N); format: in vivo, redroot pigweed (Amaranthus retroflexus); details: 320 g/ha
In short: as §4

barnyard grass [21] = experiment: Test Example 3: herbicidal effect by foliage application, Wagner pot (Table 18, symbol H); format: in vivo, barnyard grass (Echinochloa crus-galli); details: 320 g/ha
In short: as §2

velvetleaf [22] = experiment: Test Example 4: herbicidal effect by soil treatment (Table 19, symbol M); format: in vivo, velvetleaf (Abutilon theophrasti); details: 320 g/ha
In short: as §4

Italian ryegrass [23] = experiment: Test Example 4: herbicidal effect by soil treatment (Table 19, symbol K); format: in vivo, Italian ryegrass (Lolium multiflorum); details: 320 g/ha
In short: as §4

rice flat sedge = experiment: Test Example 3: herbicidal effect by foliage application, Wagner pot (Table 18, symbol E); format: in vivo, rice flat sedge (Cyperus iria); details: 320 g/ha
In short: as §2

chickweed [24] = experiment: Test Example 4: herbicidal effect by soil treatment (Table 19, symbol P); format: in vivo, common chickweed (Stellaria media); details: 320 g/ha
In short: as §4

southern crabgrass [25] = experiment: Test Example 5: herbicidal effect by foliage application, plastic box (Table 20, symbol F); format: in vivo, southern crabgrass (Digitaria ciliaris); details: foliage application, 320 g/ha, evaluated three weeks after application
In short: as §1

persian speedwell [26] = experiment: Test Example 4: herbicidal effect by soil treatment (Table 19, symbol R); format: in vivo, Persian speedwell (Veronica persica); details: 320 g/ha
In short: as §4

late watergrass = experiment: Test Example 1: herbicidal activity, application before weed generation under submerged conditions (Table 16, symbol A); format: in vivo, late watergrass (Echinochloa oryzicola); details: 320 g/ha applied herbicide
In short: as §3

lambsquarters [27] = experiment: Test Example 5: herbicidal effect by foliage application, plastic box (Table 20, symbol O); format: in vivo, lambsquarters (Chenopodium album); details: foliage application, 320 g/ha, evaluated three weeks after application
In short: as §1

## CCCC(=O)Oc1c(C)nn(C)c(=O)c1-c1c(-c2ccc(F)cc2OC)sc2ccc(Cl)cc12 [2-096]
Italian ryegrass [1]
  herbicidal effect on K: Italian ryegrass: 0 (Herbicidal rate of 5% or less (almost no effect))
Chinese sprangletop
  herbicidal effect on D (Chinese sprangletop), rating 0-5: 1 (Herbicidal rate of 5% or more and less than 20%)
Barnyard grass [2]
  herbicidal effect on H: barnyard grass: 4 (Herbicidal rate of 70% or more and less than 90%)
Japanese bulrush
  Herbicidal effect on B: Japanese bulrush (grade 0-5): 3 (Herbicidal rate of 40% or more and less than 70%)
Wild oat [3]
  herbicidal effect on I: wild oat: 0 (Herbicidal rate of 5% or less (almost no effect))
Wild oat [4]
  herbicidal effect rating, I: wild oat: 0 (Herbicidal rate of 5% or less (almost no effect))
Velvetleaf [5]
  herbicidal effect on M: velvetleaf: 1 (Herbicidal rate of 5% or more and less than 20%)
Chickweed [6]
  herbicidal effect on P: chickweed: 5 (Herbicidal rate of 90% or more (almost completely withered))
False cleavers [7]
  herbicidal effect rating, Q: false cleavers: 0 (Herbicidal rate of 5% or less (almost no effect))
Redroot pigweed [8]
  herbicidal effect on N: redroot pigweed: 3 (Herbicidal rate of 40% or more and less than 70%)
Green foxtail [9]
  herbicidal effect on G: green foxtail: 3 (Herbicidal rate of 40% or more and less than 70%)
Windgrass [10]
  herbicidal effect on L: windgrass: 4 (Herbicidal rate of 70% or more and less than 90%)
Lambsquarters [11]
  herbicidal effect rating, O: lambsquarters: 3 (Herbicidal rate of 40% or more and less than 70%)
Barnyard grass [12]
  herbicidal effect rating, H: barnyard grass: 2 (Herbicidal rate of 20% or more and less than 40%)
False cleavers [13]
  herbicidal effect on Q: false cleavers: 4 (Herbicidal rate of 70% or more and less than 90%)
Persian speedwell [14]
  herbicidal effect on R: persian speedwell: 3 (Herbicidal rate of 40% or more and less than 70%)
Green foxtail [15]
  herbicidal effect rating, G: green foxtail: 3 (Herbicidal rate of 40% or more and less than 70%)
Windgrass [16]
  herbicidal effect rating, L: windgrass: 0 (Herbicidal rate of 5% or less (almost no effect))
oval-leafed pondweed
  Herbicidal effect on C: oval-leafed pondweed (grade 0-5): 2 (Herbicidal rate of 20% or more and less than 40%)
Blackgrass [17]
  herbicidal effect rating, J: blackgrass: 0 (Herbicidal rate of 5% or less (almost no effect))
Southern crabgrass [18]
  herbicidal effect rating, F: southern crabgrass: 3 (Herbicidal rate of 40% or more and less than 70%)
Blackgrass [19]
  herbicidal effect on J: blackgrass: 4 (Herbicidal rate of 70% or more and less than 90%)
Redroot pigweed [20]
  herbicidal effect rating, N: redroot pigweed: 5 (Herbicidal rate of 90% or more (almost completely withered))
Barnyard grass [21]
  herbicidal effect on H (barnyard grass), rating 0-5: 3 (Herbicidal rate of 40% or more and less than 70%)
Velvetleaf [22]
  herbicidal effect rating, M: velvetleaf: 0 (Herbicidal rate of 5% or less (almost no effect))
Italian ryegrass [23]
  herbicidal effect rating, K: Italian ryegrass: 0 (Herbicidal rate of 5% or less (almost no effect))
Rice flat sedge
  herbicidal effect on E (rice flat sedge), rating 0-5: 3 (Herbicidal rate of 40% or more and less than 70%)
Chickweed [24]
  herbicidal effect rating, P: chickweed: 4 (Herbicidal rate of 70% or more and less than 90%)
Southern crabgrass [25]
  herbicidal effect on F: southern crabgrass: 3 (Herbicidal rate of 40% or more and less than 70%)
Persian speedwell [26]
  herbicidal effect rating, R: persian speedwell: 0 (Herbicidal rate of 5% or less (almost no effect))
Late watergrass
  Herbicidal effect on A: late watergrass (grade 0-5): 1 (Herbicidal rate of 5% or more and less than 20%)
Lambsquarters [27]
  herbicidal effect on O: lambsquarters: 3 (Herbicidal rate of 40% or more and less than 70%)
